Experimental data from ChEMBL document CHEMBL4422690, “Synthesis of Rosmarinic Acid Amides as Antioxidative and Hypoglycemic Agents” (J Nat Prod, 2019).

Experiments:
[1] = Inhibition of yeast alpha-glucosidase using pNP-alpha-G as substrate measured after 30 mins; set-up: species or system Saccharomyces cerevisiae
[2] = Antioxidant activity assessed as DPPH radical scavenging activity incubated for 1.5 hrs under dark condition by spectrometric method; assay type: functional
[3] = Antioxidant activity assessed as trolox equivalents of AAPH radical scavenging activity at 50 uM preincubated for 10 mins followed by AAPH addition and measured every min for 30 mins by ORAC-FL assay; assay type: functional
[4] = Mixed-type inhibition of yeast alpha-glucosidase assessed as enzyme-substrate-inhibitor dissociation constant using varying levels of pNP-alpha-G as substrate incubated for 30 mins and measured at 1 min interval for 30 mins by Lineweaver-burk plot analysis; set-up: species or system Saccharomyces cerevisiae
[5] = Mixed-type inhibition of yeast alpha-glucosidase assessed as […] dissociation constant using varying levels of pNP-alpha-G as substrate incubated for 30 mins and measured at 1 min interval for 30 mins by Lineweaver-burk plot analysis; set-up: species or system Saccharomyces cerevisiae

Question: Which results are given for `O=C(/C=C/c1ccc(O)c(O)c1)O[C@H](Cc1ccc(O)c(O)c1)C(=O)NCc1ccccc1`?
Answer: IC50 [1]: 111 µM; IC50 [2]: 8.2 µM; Activity [3]: 2.79 µMequiv/µM

Question: Which IC50 [1] does the source give for `Cc1ccc(CNC(=O)[C@@H](Cc2ccc(O)c(O)c2)OC(=O)/C=C/c2ccc(O)c(O)c2)cc1` here?
Answer: Its IC50 is 109 µM.

Question: What about the IC50 [2] of the same compound?
Answer: Its IC50 is 10.1 µM.

Question: What about the Activity [3] of the same compound?
Answer: Its Activity is 2.62 µMequiv/µM.

Question: Which results are given for `O=C(/C=C/c1ccc(O)c(O)c1)O[C@H](Cc1ccc(O)c(O)c1)C(=O)O` [ROSMARINIC ACID]?
Answer: IC50 [1]: 134 µM; IC50 [2]: 11 µM; Activity [3]: 2.1 µMequiv/µM

Question: For `O=C(/C=C/c1ccc(O)c(O)c1)O[C@H](Cc1ccc(O)c(O)c1)C(=O)NCCc1ccccc1`, which IC50 [1] is on record?
Answer: The IC50 was 87.7 µM.

Question: And the IC50 [2]?
Answer: The IC50 was 10.4 µM.

Question: What about the Activity [3] of the same compound?
Answer: The Activity was 3.07 µMequiv/µM.

Question: Which results are given for `O=C(/C=C/c1ccc(O)c(O)c1)O[C@H](Cc1ccc(O)c(O)c1)C(=O)NCCc1ccc(O)cc1`?
Answer: IC50 [1]: 74.9 µM; IC50 [2]: 7.1 µM; Activity [3]: 3.28 µMequiv/µM

Question: Which IC50 [1] does the source give for `C[C@H]1O[C@H](O[C@H]2[C@H](O)[C@@H](O)[C@@H](O[C@H]3[C@H](O)[C@@H](O)C(O)O[C@@H]3CO)O[C@@H]2CO)[C@H](O)[C@@H](O)[C@@H]1N[C@H]1C=C(CO)[C@@H](O)[C@H](O)[C@H]1O` (stereo partly drawn) [ACARBOSE] here?
Answer: The IC50 was 269 to 285 µM.

Question: Which IC50 [1] does the source give for `CC(C)CNC(=O)[C@@H](Cc1ccc(O)c(O)c1)OC(=O)/C=C/c1ccc(O)c(O)c1` here?
Answer: The IC50 was 108 µM.

Question: What about the IC50 [2] of the same compound?
Answer: Its IC50 is 11.9 µM.

Question: And the Activity [3]?
Answer: The Activity was 2.15 µMequiv/µM.

Question: Which results are given for `CN(C)CCCNC(=O)[C@@H](Cc1ccc(O)c(O)c1)OC(=O)/C=C/c1ccc(O)c(O)c1`?
Answer: IC50 [1]: 65.5 µM; IC50 [2]: 9.3 µM; Activity [3]: 2.64 µMequiv/µM

Question: For `CCN(CC)CCCNC(=O)[C@@H](Cc1ccc(O)c(O)c1)OC(=O)/C=C/c1ccc(O)c(O)c1`, which IC50 [1] is on record?
Answer: Its IC50 is 42.3 µM.

Question: And the IC50 [2]?
Answer: Its IC50 is 8.9 µM.

Question: And the Activity [3]?
Answer: The Activity was 2.81 µMequiv/µM.

Question: What does the source list for `CCCCNC(=O)[C@@H](Cc1ccc(O)c(O)c1)OC(=O)/C=C/c1ccc(O)c(O)c1`?
Answer: IC50 [1]: 106 µM; IC50 [2]: 8.3 µM; Activity [3]: 2.72 µMequiv/µM

Question: Which Ki [4] does the source give for `CN1CCN(CCNC(=O)[C@@H](Cc2ccc(O)c(O)c2)OC(=O)/C=C/c2ccc(O)c(O)c2)CC1` here?
Answer: The Ki was 34.8 µM.

Question: And the IC50 [1]?
Answer: Its IC50 is 35.2 µM.

Question: What about the IC50 [2] of the same compound?
Answer: Its IC50 is 9.7 µM.

Question: And the Ki [5]?
Answer: The Ki was 22.8 µM.

Question: What about the Activity [3] of the same compound?
Answer: Its Activity is 2.77 µMequiv/µM.

Question: Which results are given for `O=C(/C=C/c1ccc(O)c(O)c1)O[C@H](Cc1ccc(O)c(O)c1)C(=O)NCCN1CCCCC1`?
Answer: IC50 [1]: 53.3 µM; IC50 [2]: 10.1 µM; Activity [3]: 2.84 µMequiv/µM

Question: Which results are given for `O=c1c(O)c(-c2ccc(O)c(O)c2)oc2cc(O)cc(O)c12` [QUERCETIN]?
Answer: IC50 [2]: 15.6 to 16.8 µM; Activity [3]: 2.11 to 2.19 µMequiv/µM
